From patent US11793849B2, “Method of Chinese herbal medicine extract used for treating multiple diseases caused by drug resistant bacteria infection” (priority 2016, dated 2023)
In brackets after ≈: the same amount, converted by molar mass. Read-outs that look alike come from different tables or passages of the source.

Experiments:
ATCC27853 = experiment: MIC determination, control strain; assay type: cell-based
Protocol: Determination methods of a Minimal Inhibitory Concentration (MIC) and a Minimum Bactericidal Concentration (MBC) of a test product: the MIC and the MBC of the Pithecellobium clypearia Benth water or ethanol extract to the MDRAB are determined by a microdilution broth method.

MDRPA = experiment: MIC determination, microdilution broth method;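 note: broth microdilution per NCCLS recommendations, testing Pithecellobium clypearia water or ethanol extracts against multidrug-resistant Pseudomonas aeruginosa, with MIC50 and MIC90 derived statistically from individual MICs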
Protocol: Determination methods of a Minimal Inhibitory Concentration (MIC) and a Minimum Bactericidal Concentration (MBC) of a test product: the MIC and the MBC of the Pithecellobium clypearia Benth water or ethanol extract to the MDRAB are determined by a microdilution broth method. And it is operated by referring to the microdilution broth method recommended by National Committee for Clinical Laboratory Standards (NCCLS).
By determining the MIC and the MBC of the drug and making statistics of the data to obtain MIC50, MIC90, MBC50 and MBC90, the effect of the MDRA resistance of the drug is evaluated.
Test method: the MDRPA (serial No.: P1-P20) strains are tested and are evaluated with reference to the method in the first embodiment.

[1] = 20 MDRPAs, EA = 60% ethanol extract
[2] = 20 MDRPAs, EA = 95% ethanol extract
[3] = MDRPAs P1-P20, single use, EA=P. clypearia 10% ethanol extract
[4] = MDRPAs P1-P20, single use, EA=P. clypearia water extract
[5] = single use, 20 MDRPAs, section of the 10% ethanol extract
[6] = single use, 20 MDRPAs, section of the 60% ethanol extract
[7] = single use, 20 MDRPAs, section of the 95% ethanol extract

In the case of C[C@H]1COc2c(N3CCN(C)CC3)c(F)cc3c(=O)c(C(=O)O)cn1c23 [LVX, Levofloxacin], the MIC (ATCC27853; EA=10% ethanol extract, read-out: MIC) is reported as 1 µg/mL (≈ 2.77 µM), the MIC (ATCC27853; EA=60% ethanol extract, read-out: MIC) is reported as 1 µg/mL (≈ 2.77 µM) and the MIC (ATCC27853; EA=95% ethanol extract, read-out: MIC) is reported as 1 µg/mL (≈ 2.77 µM). For the same compound, the MIC (ATCC27853; EA=P. clypearia 10% ethanol extract, read-out: MIC (single use)) was 1 µg/mL (≈ 2.77 µM), the MIC (ATCC27853; EA=P. clypearia water extract, read-out: MIC (single use)) was 1 µg/mL (≈ 2.77 µM) and the MIC (ATCC27853; EA=water extract, read-out: MIC) was 1 µg/mL (≈ 2.77 µM). It also gave an MIC (ATCC27853; single use, EA = 60% ethanol extract, read-out: MIC) of 1 µg/mL (≈ 2.77 µM), an MIC (ATCC27853; single use, EA = 95% ethanol extract, read-out: MIC) of 1 µg/mL (≈ 2.77 µM) and an MIC50 (MDRPA; [1]) of 4 µg/mL (≈ 11.1 µM). The MIC90 (MDRPA; [1]) was 32 µg/mL (≈ 88.6 µM), the “MIC Range” value (MDRPA; [1]) was 0.5 to 128 µg/mL and the MIC50 (MDRPA; [2]) was 4 µg/mL (≈ 11.1 µM). For the same compound, the MIC90 (MDRPA; [2]) was 32 µg/mL (≈ 88.6 µM), the “MIC Range” value (MDRPA; [2]) was 0.5 to 128 µg/mL and the MIC50 (MDRPA; [3]) was 4 µg/mL (≈ 11.1 µM). The MIC90 (MDRPA; [3]) was 32 µg/mL (≈ 88.6 µM), the “MIC Range” value (MDRPA; [3]) was 0.5 to 128 µg/mL and the MIC50 (MDRPA; [4]) was 4 µg/mL (≈ 11.1 µM). For the same compound, the MIC90 (MDRPA; [4]) was 32 µg/mL (≈ 88.6 µM), the “MIC Range” value (MDRPA; [4]) was 0.5 to 128 µg/mL and the MIC50 (MDRPA; Pseudomonas aeruginosa) was 4 µg/mL (≈ 11.1 µM). For the same compound, the MIC90 (MDRPA; Pseudomonas aeruginosa) was 32 µg/mL (≈ 88.6 µM), the MIC (MDRPA; Pseudomonas aeruginosa, read-out: MIC (single use), strain P1, EA=P. clypearia 10% ethanol extract) was 32 µg/mL (≈ 88.6 µM) and the MIC (MDRPA; Pseudomonas aeruginosa, read-out: MIC (single use), strain P1, EA=P. clypearia water extract) was 32 µg/mL (≈ 88.6 µM). It also gave an MIC (MDRPA; Pseudomonas aeruginosa, read-out: MIC (single use), strain P2, EA=P. clypearia 10% ethanol extract) of 4 µg/mL (≈ 11.1 µM), an MIC (MDRPA; Pseudomonas aeruginosa, read-out: MIC (single use), strain P2, EA=P. clypearia water extract) of 4 µg/mL (≈ 11.1 µM) and an MIC (MDRPA; Pseudomonas aeruginosa, read-out: MIC (single use), strain P3, EA=P. clypearia 10% ethanol extract) of 8 µg/mL (≈ 22.1 µM). For the same compound, the MIC (MDRPA; Pseudomonas aeruginosa, read-out: MIC (single use), strain P3, EA=P. clypearia water extract) was 8 µg/mL (≈ 22.1 µM), the MIC (MDRPA; Pseudomonas aeruginosa, read-out: MIC (single use), strain P4, EA=P. clypearia 10% ethanol extract) was 8 µg/mL (≈ 22.1 µM) and the MIC (MDRPA; Pseudomonas aeruginosa, read-out: MIC (single use), strain P4, EA=P. clypearia water extract) was 8 µg/mL (≈ 22.1 µM). For the same compound, the MIC (MDRPA; Pseudomonas aeruginosa, read-out: MIC (single use), strain P5, EA=P. clypearia 10% ethanol extract) was 1 µg/mL (≈ 2.77 µM), the MIC (MDRPA; Pseudomonas aeruginosa, read-out: MIC (single use), strain P5, EA=P. clypearia water extract) was 1 µg/mL (≈ 2.77 µM) and the MIC (MDRPA; Pseudomonas aeruginosa, read-out: MIC (single use), strain P6, EA=P. clypearia 10% ethanol extract) was 0.5 µg/mL (≈ 1.38 µM). It also gave an MIC (MDRPA; Pseudomonas aeruginosa, read-out: MIC (single use), strain P6, EA=P. clypearia water extract) of 0.5 µg/mL (≈ 1.38 µM), an MIC (MDRPA; Pseudomonas aeruginosa, read-out: MIC (single use), strain P7, EA=P. clypearia 10% ethanol extract) of 32 µg/mL (≈ 88.6 µM) and an MIC (MDRPA; Pseudomonas aeruginosa, read-out: MIC (single use), strain P7, EA=P. clypearia water extract) of 32 µg/mL (≈ 88.6 µM). For the same compound, the MIC (MDRPA; Pseudomonas aeruginosa, read-out: MIC (single use), strain P8, EA=P. clypearia 10% ethanol extract) was 1 µg/mL (≈ 2.77 µM), the MIC (MDRPA; Pseudomonas aeruginosa, read-out: MIC (single use), strain P8, EA=P. clypearia water extract) was 1 µg/mL (≈ 2.77 µM) and the MIC (MDRPA; Pseudomonas aeruginosa, read-out: MIC (single use), strain P9, EA=P. clypearia 10% ethanol extract) was 4 µg/mL (≈ 11.1 µM). For the same compound, the MIC (MDRPA; Pseudomonas aeruginosa, read-out: MIC (single use), strain P9, EA=P. clypearia water extract) was 4 µg/mL (≈ 11.1 µM), the MIC (MDRPA; Pseudomonas aeruginosa, read-out: MIC (single use), strain P10, EA=P. clypearia 10% ethanol extract) was 128 µg/mL (≈ 354 µM) and the MIC (MDRPA; Pseudomonas aeruginosa, read-out: MIC (single use), strain P10, EA=P. clypearia water extract) was 128 µg/mL (≈ 354 µM). The MIC (MDRPA; Pseudomonas aeruginosa, read-out: MIC (single use), strain P11, EA=P. clypearia 10% ethanol extract) was 2 µg/mL (≈ 5.53 µM), the MIC (MDRPA; Pseudomonas aeruginosa, read-out: MIC (single use), strain P11, EA=P. clypearia water extract) was 2 µg/mL (≈ 5.53 µM) and the MIC (MDRPA; Pseudomonas aeruginosa, read-out: MIC (single use), strain P12, EA=P. clypearia 10% ethanol extract) was 1 µg/mL (≈ 2.77 µM). It also gave an MIC (MDRPA; Pseudomonas aeruginosa, read-out: MIC (single use), strain P12, EA=P. clypearia water extract) of 1 µg/mL (≈ 2.77 µM), an MIC (MDRPA; Pseudomonas aeruginosa, read-out: MIC (single use), strain P13, EA=P. clypearia 10% ethanol extract) of 2 µg/mL (≈ 5.53 µM) and an MIC (MDRPA; Pseudomonas aeruginosa, read-out: MIC (single use), strain P13, EA=P. clypearia water extract) of 2 µg/mL (≈ 5.53 µM). It also gave an MIC (MDRPA; Pseudomonas aeruginosa, read-out: MIC (single use), strain P14, EA=P. clypearia 10% ethanol extract) of 32 µg/mL (≈ 88.6 µM), an MIC (MDRPA; Pseudomonas aeruginosa, read-out: MIC (single use), strain P14, EA=P. clypearia water extract) of 32 µg/mL (≈ 88.6 µM) and an MIC (MDRPA; Pseudomonas aeruginosa, read-out: MIC (single use), strain P15, EA=P. clypearia 10% ethanol extract) of 2 µg/mL (≈ 5.53 µM). It also gave an MIC (MDRPA; Pseudomonas aeruginosa, read-out: MIC (single use), strain P15, EA=P. clypearia water extract) of 2 µg/mL (≈ 5.53 µM), an MIC (MDRPA; Pseudomonas aeruginosa, read-out: MIC (single use), strain P16, EA=P. clypearia 10% ethanol extract) of 32 µg/mL (≈ 88.6 µM) and an MIC (MDRPA; Pseudomonas aeruginosa, read-out: MIC (single use), strain P16, EA=P. clypearia water extract) of 32 µg/mL (≈ 88.6 µM). The MIC (MDRPA; Pseudomonas aeruginosa, read-out: MIC (single use), strain P17, EA=P. clypearia 10% ethanol extract) was 4 µg/mL (≈ 11.1 µM), the MIC (MDRPA; Pseudomonas aeruginosa, read-out: MIC (single use), strain P17, EA=P. clypearia water extract) was 4 µg/mL (≈ 11.1 µM) and the MIC (MDRPA; Pseudomonas aeruginosa, read-out: MIC (single use), strain P18, EA=P. clypearia 10% ethanol extract) was 4 µg/mL (≈ 11.1 µM). It also gave an MIC (MDRPA; Pseudomonas aeruginosa, read-out: MIC (single use), strain P18, EA=P. clypearia water extract) of 4 µg/mL (≈ 11.1 µM), an MIC (MDRPA; Pseudomonas aeruginosa, read-out: MIC (single use), strain P19, EA=P. clypearia 10% ethanol extract) of 16 µg/mL (≈ 44.3 µM) and an MIC (MDRPA; Pseudomonas aeruginosa, read-out: MIC (single use), strain P19, EA=P. clypearia water extract) of 16 µg/mL (≈ 44.3 µM). For the same compound, the MIC (MDRPA; Pseudomonas aeruginosa, read-out: MIC (single use), strain P20, EA=P. clypearia 10% ethanol extract) was 4 µg/mL (≈ 11.1 µM), the MIC (MDRPA; Pseudomonas aeruginosa, read-out: MIC (single use), strain P20, EA=P. clypearia water extract) was 4 µg/mL (≈ 11.1 µM) and the MIC50 (MDRPA; [5]) was 4 µg/mL (≈ 11.1 µM). It also gave an MIC90 (MDRPA; [5]) of 32 µg/mL (≈ 88.6 µM), an MIC50 (MDRPA; [6]) of 4 µg/mL (≈ 11.1 µM) and an MIC90 (MDRPA; [6]) of 32 µg/mL (≈ 88.6 µM). For the same compound, the MIC50 (MDRPA; [7]) was 4 µg/mL (≈ 11.1 µM) and the MIC90 (MDRPA; [7]) was 32 µg/mL (≈ 88.6 µM).
